Measurements: patent US10881716B2, “Rapid-acting insulin formulation comprising a substituted anionic compound” (ADOCIA, priority 2012, dated 2021)
Structures can show the parent of a compound that is named as a salt.

Tests used:
[1] = test system: man; settings: subcutaneously-injected, diabetic patients; cited from earlier work
[2] = molecular target: human insulin (hexameric form) (Homo sapiens, UniProt P01308); test: Association state of human insulin evaluated by circular dichroism (CD signal at 275 nm); type: physicochemical; settings: D2, FIG. 12; rhINS + 9.3 mM citrate, 6 mM EDTA, 7.3 mg/ml Compound 1, 20 mg/ml Polyanionic compound 1
Procedure: Circular dichroism makes it possible to study the secondary and quaternary structure of insulin. The insulin monomers are organized as dimers and as hexamers. […] The CD signal at 275 nm is characteristic of the hexameric form of insulin (hexamer signal at about −300°, signal for the dimer between −200° and −250°, and signal for the monomer below −200°. Loss of the CD signal at 275 nm is therefore characteristic of destabilization of the hexamer into dimers or monomers.
Circular dichroism makes it possible to study the secondary and quaternary structure of insulin. The insulin monomers are organized as dimers and as hexamers. […] The CD signal at 275 nm is characteristic of the hexameric form of insulin (hexamer signal at about −300°, signal for the dimer between −200° and −250°, and signal for the monomer below −200°). Loss of the CD signal at 275 nm is therefore characteristic of destabilization of the hexamer into dimers or monomers.

[3] = molecular target: T1, lispro insulin (R6 hexameric form) (Homo sapiens, UniProt P01308, K53P/P52K); test: Association state of lispro insulin evaluated by circular dichroism (CD signal at 251 nm); type: physicochemical; settings: D1, FIG. 11; Humalog + 9.3 mM citrate, 6 mM EDTA, 7.3 mg/ml Compound 1, 20 mg/ml Polyanionic compound 1
T1 construct: purchased Eli Lilly Humalog®
From the text: Circular dichroism makes it possible to study the secondary and quaternary structure of insulin. The insulin monomers are organized as dimers and as hexamers. […] Two hexameric forms exist, the R6 form and the T6 form. […] Loss of the CD signal at 251 nm is linked to destabilization of the hexamer (and thus the first sign of transformation of the hexamer into dimer).
Circular dichroism makes it possible to study the secondary and quaternary structure of insulin. The insulin monomers are organized as dimers and as hexamers. […] Two hexameric forms exist, the R6 form and the T6 form. […] Loss of the CD signal at 251 nm is linked to destabilization of the hexamer (and thus the first sign of transformation of the hexamer into dimer). […]

[4] = molecular target: human insulin (Homo sapiens, UniProt P01308); test: Dissolution of human insulin at its isoelectric point (pH 5.3); type: binding; settings: translucent = Yes, turbid = No
Procedure: If an interaction exists, it is possible to dissolve the insulin at its isoelectric point. […] Solutions of compounds at different concentrations (8, 30 or 100 mg/mL) in water are prepared. […] The pH of the various solutions is adjusted to pH 5.3 by adding 200 mM acetic acid. The appearance of the solution is documented.

[5] = molecular target: BSA (bovine serum albumin) (Bos taurus, UniProt P02769); test: Interaction with albumin, Centricon test (50 kDa membrane), UV assay of the filtrate; type: binding; settings: 2.43 mg/mL of polysaccharide or compound, 13.3 mg/mL of albumin in PBS, about 100 mM of salts
Procedure: F1: In order to determine the interactions between the various polysaccharides or compounds and a model protein such as albumin, a Centricon test (membrane with a cut-off threshold of 50 kDa) was performed. A solution of polysaccharide or of compound at 7.3 mg/mL was diluted three-fold in a solution of BSA (bovine serum albumin) at 20 mg/mL in PBS (concentration in the mixture: 2.43 mg/mL of polysaccharide or of compound, 13.3 mg/mL of albumin and about 100 mM of salts).
This mixture was centrifuged on a Centricon to make about half the volume pass through the membrane. The albumin is quantitatively retained on the Centricon membrane. The polysaccharides and compounds analyzed alone pass in large majority through the membrane (for the polysaccharides having the largest molar masses, about 20% of the polysaccharide is retained).
After centrifugation, the polysaccharide or compound is assayed by UV in the filtrate. The percentage of polysaccharide or compound bound to the albumin is calculated via the following equation:
(1-[polysaccharide or compound in the filtrate in the presence of albumin]/[polysaccharide or compound in the filtrate in the absence of albumin])*100

[6] = pH at which the insulin precipitates; cited from earlier work

Chain of human insulin (P01308 25-54 limits assumed): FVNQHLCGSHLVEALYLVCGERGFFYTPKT
Chain of human insulin (P01308 90-110 limits assumed): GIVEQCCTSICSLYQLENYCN
Chain of human insulin (hexameric form) (P01308 25-54 limits assumed): as the sequence (P01308 25-54 limits assumed) above
Chain of BSA (bovine serum albumin) (P02769 25-607): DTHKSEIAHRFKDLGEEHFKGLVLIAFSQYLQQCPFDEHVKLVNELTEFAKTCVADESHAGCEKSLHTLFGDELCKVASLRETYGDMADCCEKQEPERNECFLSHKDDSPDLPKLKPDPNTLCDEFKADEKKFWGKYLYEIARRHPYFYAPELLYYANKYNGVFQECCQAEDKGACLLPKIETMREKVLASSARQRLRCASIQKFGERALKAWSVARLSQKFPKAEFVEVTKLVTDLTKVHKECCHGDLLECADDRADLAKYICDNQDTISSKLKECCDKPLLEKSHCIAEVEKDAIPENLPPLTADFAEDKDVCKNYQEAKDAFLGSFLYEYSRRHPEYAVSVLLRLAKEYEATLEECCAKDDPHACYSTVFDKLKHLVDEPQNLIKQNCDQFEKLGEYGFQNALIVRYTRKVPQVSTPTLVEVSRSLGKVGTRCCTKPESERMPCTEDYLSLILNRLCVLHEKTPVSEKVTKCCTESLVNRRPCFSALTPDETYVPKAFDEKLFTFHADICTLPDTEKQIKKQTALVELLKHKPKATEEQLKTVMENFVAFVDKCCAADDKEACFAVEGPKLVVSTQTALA
T1 sequence (P01308 25-54 P52K/K53P limits assumed): as the sequence (P01308 25-54 limits assumed) above, with P28K, K29P counted along it

**Q.** With “human insulin: insulin obtained by synthesis or recombination, whose peptide sequence is the sequence of human insulin” as the compound, how does the “hypoglycemiant effect only after” value [1] read?
**A.** The value was 60 min.

**Q.** Which “impact on the CD signal at 275 nm / hexameric structure of human insulin” value [2] does the source give for “Sodium Maltotriosemethylcarboxylate [Polyanionic compound 1]” here?
**A.** Its value is “no impact on the hexameric structure of human insulin”.

**Q.** For `O=C(O)CN(CCN(CC(=O)O)CC(=O)O)CC(=O)O` [EDTA, reference compound], which “impact on the CD signal at 251 nm / R6 hexameric form of lispro insulin” value [3] is on record?
**A.** Its value is “completely destructure the R6 form of lispro insulin”.

**Q.** And the “impact on the CD signal at 275 nm / hexameric structure of human insulin” value [2]?
**A.** Its value is “total dissociation of the hexamer into dimers”.

**Q.** Which “Dissolution of human insulin at 100 IU/mL with the compound at 4 mg/mL” value [4] does the source give for “Sodium Maltopentaosemethylcarboxylate Functionalized with Sodium L-Phenylalaninate [Compound 8]” here?
**A.** Its value is “No”.

**Q.** And the “Dissolution of human insulin at 100 IU/mL with the compound at 15 mg/mL” value [4]?
**A.** Its value is “No”.

**Q.** And the “Dissolution of human insulin at 100 IU/mL with the compound at 50 mg/mL” value [4]?
**A.** The value was “Yes”.

**Q.** And the “% Polysaccharide or % Compound bound to BSA” value [5]?
**A.** The value was 27%.

**Q.** Which “% Polysaccharide or % Compound bound to BSA” value [5] does the source give for “Sodium Maltotriosemethylcarboxylate Functionalized with Sodium Alpha-Phenylglycinate [Compound 11]” here?
**A.** The value was 35%.

**Q.** What does the source list for “Sodium Maltotriosemethylcarboxylate Functionalized with Sodium L-Tyrosinate [Compound 10]”?
**A.** Dissolution of human insulin at 100 IU/mL with the compound at 4 mg/mL [4]: No; Dissolution of human insulin at 100 IU/mL with the compound at 15 mg/mL [4]: No; Dissolution of human insulin at 100 IU/mL with the compound at 50 mg/mL [4]: Yes

**Q.** For “Sodium Maltooctaosemethylcarboxylate Functionalized with Sodium L-Phenylalaninate [Compound 9]”, which “Dissolution of human insulin at 100 IU/mL with the compound at 4 mg/mL” value [4] is on record?
**A.** Its value is “No”.

**Q.** And the “Dissolution of human insulin at 100 IU/mL with the compound at 15 mg/mL” value [4]?
**A.** The value was “No”.

**Q.** What about the “Dissolution of human insulin at 100 IU/mL with the compound at 50 mg/mL” value [4] of the same compound?
**A.** The value was “Yes”.

**Q.** What about the “% Polysaccharide or % Compound bound to BSA” value [5] of the same compound?
**A.** The value was 43%.

**Q.** What does the source list for `O=C(O)CC(O)(CC(=O)O)C(=O)O` [citrate, sodium citrate]?
**A.** impact on the CD signal at 251 nm / R6 hexameric form of lispro insulin [3]: virtually no impact on the CD signal at 251 nm; impact on the CD signal at 275 nm / hexameric structure of human insulin [2]: no impact on the hexameric structure of human insulin

**Q.** For “Lispro insulin: rapid insulin analog, active principle of Humalog”, which isoelectric point [6] is on record?
**A.** The isoelectric point was 5.3.
